Measured values from ChEMBL document CHEMBL4371055, “Bioactive polyoxygenated cembranoids from a novel Hainan chemotype of the soft coral Sinularia flexibilis” (Bioorg Med Chem Lett, 2019).

Experiments:
[1] = Selectivity index, ratio of CC50 for mouse RAW264.7 cells to IC50 for inhibition of LPS-induced TNFalpha production in mouse RAW264.7 cells; type: toxicity, cell-based; conditions: read-out: Ratio CC50/IC50
SNU-398 = assay: Cytotoxicity against human SNU398 cells after 48 hrs by sulforhodamine B assay; type: functional, cell-based; conditions: SNU-398, 48 h
CAPAN-1 = assay: Cytotoxicity against human Capan1 cells after 48 hrs by sulforhodamine B assay; type: functional, cell-based; conditions: CAPAN-1, 48 h
[2] = Cytotoxicity against mouse RAW264.7 cells assessed as reduction in cell viability after 24 hrs by CCK8 assay; type: cell-based
RAW264.7 = assay: Antiinflammatory activity in mouse RAW264.7 cells assessed as inhibition of LPS-induced TNFalpha production pretreated for 30 mins followed by LPS stimulation for 24 hrs by ELISA; type: functional, cell-based
A549 = assay: Cytotoxicity against human A549 cells after 48 hrs by sulforhodamine B assay; type: functional, cell-based; conditions: A549, 48 h
HT-29 = assay: Cytotoxicity against human HT-29 cells after 48 hrs by sulforhodamine B assay; type: functional, cell-based; conditions: HT-29, 48 h

| Compound | selectivity ratio [1] | IC50 (SNU-398) | IC50 (CAPAN-1) | CC50 at 24 h [2] | IC50 (RAW264.7) | IC50 (A549) | IC50 (HT-29) |
| --- | --- | --- | --- | --- | --- | --- | --- |
| C=C1C(=O)O[C@]2(C)CC[C@@H]1C[C@@H]1O[C@@]1(C)CC/C=C(\C)CC[C@@H]2O [SINULARIOLIDE] | > 10.6 | 24.7 µM | 26.1 µM | > 50 µM | 4.7 µM | > 50 µM | 33.6 µM |
| CC(=O)O[C@H]1C(=O)[C@@]2(C)[C@H]([C@H](OC(=O)c3ccccc3)[C@]3(O)C[C@H](OC(=O)[C@H](O)[C@@H](NC(=O)c4ccccc4)c4ccccc4)C(C)=C1C3(C)C)[C@]1(OC(C)=O)CO[C@@H]1C[C@@H]2O [PACLITAXEL] |  | 0.0006 µM | 0.0033 µM |  |  |  |  |
| C=C(C)[C@@H]1CC[C@]2(C)O[C@H]2CC/C(C)=C/CC[C@]2(C)O[C@H]2C1 |  | > 50 µM | > 50 µM | > 50 µM | > 50 µM | > 50 µM | > 50 µM |
| C=C1C(=O)O[C@]2(C)CC[C@@H]1C[C@@H]1O[C@@]1(C)CC/C=C(\C)CCC2=O |  | 8.9 µM | 9.4 µM | > 50 µM | > 50 µM | 27.4 µM | 22.7 µM |
| C=C(C(=O)OCCCC)[C@H]1CC[C@](C)(O)C(=O)CC/C(C)=C/CC[C@]2(C)O[C@@H]2C1 | > 1.3 | > 50 µM | > 50 µM | > 50 µM | 38.9 µM | > 50 µM | > 50 µM |
| C=C(C(=O)OCCCC)[C@@H]1CC[C@@](C)(O)[C@@H]2CC[C@](C)(O2)[C@@H](OC(C)=O)CC[C@]2(C)O[C@H]2C1 | > 2.4 | > 50 µM | > 50 µM | > 50 µM | 20.7 µM | > 50 µM | > 50 µM |
| C=C(C(=O)OCCCC)[C@@H]1CC[C@@](C)(O)[C@H](O)CC/C(C)=C/CC[C@]2(C)O[C@H]2C1 |  | > 50 µM | > 50 µM | > 50 µM | > 50 µM | > 50 µM | > 50 µM |
| C[C@@H]1C[C@H]2[C@@H]3CCC4=CC(=O)C=C[C@]4(C)[C@@]3(F)[C@@H](O)C[C@]2(C)[C@@]1(O)C(=O)CO [DEXAMETHASONE] | > 5.7 |  |  | > 50 µM | 8.7 µM |  |  |
| C=C1C(=O)O[C@]2(C)CC[C@@H]1C[C@@H]1O[C@@]1(C)CC/C=C(\C)CC[C@H]2OC(C)=O | > 18.5 | 24.9 µM | 28.7 µM | > 50 µM | 2.7 µM | > 50 µM | 32.6 µM |
| C=C(C(=O)OC)[C@H]1CC[C@@]2(C)O[C@@H]2CC/C(C)=C/CC[C@@]2(C)O[C@H]2C1 | > 11.9 | > 50 µM | > 50 µM | > 50 µM | 4.2 µM | > 50 µM | > 50 µM |
| C=C(C(=O)OC)[C@H]1CC[C@](C)(O)C(=O)CC/C(C)=C/CC[C@]2(C)O[C@@H]2C1 | > 3.8 | > 50 µM | > 50 µM | > 50 µM | 13.3 µM | > 50 µM | > 50 µM |
